Data as given in paper PMC9143577, “Cationic Geminoid Peptide Amphiphiles Inhibit DENV2 Protease, Furin, and Viral Replication” (Molecules, 2022).
Entries after “also recorded” stand apart in the source; their conditions may differ. Where a SMILES comes first, the peptide text is derived from it. The star is where a group is joined. Palmitoyl = CCCCCCCCCCCCCCCC(=O)*; NHhexadecyl = CCCCCCCCCCCCCCCCN*

Key:
DENV2 protease = DENV2 protease (Dengue virus type 2, UniProt P14340); experiment: biochemical
Experimental: IC50 values were determined in CDD Vault using the Levenberg–Marquardt algorithm for fitting a Hill equation to dose-response data.
(§1) Enzyme expression and purification
DENV2 Protease Preparation. The enzyme was expressed and purified as previously described (ref. S1). Briefly, the vector with CF40 fused to NS3pro was used for high- level inducible expression of recombinant enzyme, tagged on the N-t erminus with hexahistidine. E. coli strain SG13009 cells were transformed with the expression plasmid and grown in kanamycin at 37 °C until the absorb ance at 600 nm r each ed a v alue of 0.6. Cells were induced for expression by the addition of isopropyl-β-D-thiogalactopyranose to a final concentration of 1 mM and incubated for additional 3 h at 30 °C. The cells were harvested by centrifugation, resuspended in 1 mL of a lysis buffer, subjected to sonication, and centrifuged again. The supernatant was collected and passed through a 2- mL column of nitrilotriacetic acid-agarose (Qiagen) loaded with Ni2+. The column was extensively washed with buffer containing […], and the protein was then eluted from then column in buffer containing 100 mM imidazole.
Elution samples were analyzed by 15% SDS-PAGE and the substrate Z-RR- MCA was used to distinguish the activity of DENV2 protease from that of contaminating bacterial […]
proteases. […]

human furin = human furin (Homo sapiens, UniProt P09958); experiment: Furin inhibition assay with MCA substrate (Ac-RVRR-MCA); type: biochemical; details: 0.76 nM furin, pH 7.0, 37 °C, read-out: IC50 (MCA Substrates) Furin
Excerpt: as §1
DENV2 Protease Preparation. The enzyme was expressed and purified as previously described (ref. S1). […]
subjected to sonication, and centrifuged again. The supernatant was collected and passed […]
Human Furin Preparation. The enzyme was expressed and purified as previously described (ref. S3). Briefly, The PCMV-Fur_S vector containing cDNA […]
Human furin was purifi ed […]
substrate Abz-[…]- EDDnp.

[1] = system: wildtype DENV2 (DENV2 NGC); type: cell-based, DENV2 New Guinea strain; details: percentage of infected cells, 2 days after infection; for EC50: LLC-MK2 cells, read-out: DENV Replication in LLC-MK2 Cells EC50
Experimental: LLC-MK2 (Monkey Rhesus Kidney cells; CCL-7.1) were passaged in assay medium (EMEM (Lonza Cat No: BESP069F) supplemented with 10% heat-inactivated FCS (Lonza), 2% Pen/strep (Gibco), 2% L-Glutamine (Gibco), 2% Hepes (Lonza), and 1% sodium bicarbonate (Lonza)) prior to use in the antiviral assay. Cells were seeded in 96-well plates (10^5 cells/well) in assay medium to be exposed 16–24 h later to compounds and viruses. The plates were incubated at 37 °C/5% CO2 overnight to allow for cell adherence.
Compounds were solubilized in DMSO and evaluated using two-fold serial dilutions (8-points dose-response curves starting at a concentration of 50 µM) in duplicate for the antiviral assays. Compounds were diluted in assay medium at 1× test concentrations. Ribavirin (Sigma Aldrich, Amsterdam, The Netherlands) was evaluated as a positive control compound in the antiviral assays.
DENV2 New Guinea strain was grown in AP-61 insect cells (in-house cell bank) in complete Leibovitz medium containing 1% pen/strep (Gibco), 1% L-glutamin (Gibco), 0.5% Hepes (Lonza), 0.5% sodium bicarbonate (Lonza), and 10% tryptose phosphate for the production of stock virus pools. On the day of cellular infection, an aliquot of virus was removed from the freezer (−80 °C) and allowed to thaw in water in a biological safety cabinet. Virus was diluted into assay medium (10^4 TCID50), and 100 µL of this was added to each well, resulting in a TCID50 of 100. Cells were incubated for 2 h at 37 °C/5% CO2 and washed 3 times with blank assay medium. Directly after washing, 100 µL of the compound dilutions were added to each well.
Each plate contained cell control wells (cells only), virus control wells (cells plus virus), duplicate drug toxicity wells per compound (cells plus drug only), as well as duplicate experimental wells (drug plus cells plus virus).
Virus-infected cells were visualised using a DENV2 immunoperoxidase staining protocol. Two days after infection, cells were inactivated with ethanol 70% for 30 min and washed with PBS. Fixed plates were incubated with PBS containing 0.05% H2O2 for 20 min at 37 °C and washed again 3 times with PBS. Plates were incubated for 1 h with 50 µL monoclonal anti-DENV-2 NS1 antibody (Millipore; diluted 1:500 in EMEM). Samples were washed once with PBS containing 0.05% Tween20 and twice with PBS only. Secondary polyclonal goat anti-mouse IgG HRP (Dako; diluted 1:2000) was added 50 µL per well and incubated for 1 h at 37 °C in the dark. […] Bidest water was added after removal of the substrate solution, and all virus-positive cells per well (marked by brown/red staining) were counted under a microscope. […]

trypsin = experiment: Trypsin inhibition assay with Z-FR-MCA; type: biochemical; details: 4 nM trypsin, 11.4 μM Z-FR-MCA; 100 mM Tris.HCl, pH 8.0, 10 mM CaCl2; read-out: IC50 (MCA Substrates) Trypsin
Experimental: The assay was carried out in 100 mM Tris.HCl, 10 mM CaCl2, pH 8.0, with 4 nM enzyme and 11.4 µM Z-FR-MCA substrate.

[2] = Critical micelle concentration by pyrene fluorescence; type: physicochemical; details: pure water
Experimental: Pyrene was used as a probe to study the changes in its fluorescence, in particular the ratio (I1/I3) of the intensities I1 and I3 […] 373 and 383 nm, respectively. An abrupt change in this ratio with increasing surfactant concentration points to an increase in hydrophobicity of the environment of the probe corresponding to the formation of aggregates. See Supporting Information for details.
Determ ination of the critical m icelle concentrat ion (CMC)
A solution of 5 mg pyrene in methanol (10 mL) was prepared and diluted 20 times. 50 µ L from the dil uted solution was added to geminoid solutions in water to a final volume of 3 mL. The geminoid samples were made from a stock solution of 500 µ M in water in a concentration range from 5 to 200 µ M. The fluorescence spectra were then measured after 1 hour wi th the […] set to 334 nm and emission range 350- 500 nm, excitation slit […], emission slit […] and at 25 °C. The ratio of the intensities was then plotted against the geminoid concentration, and the CMC is calculated from the intersection point of the best fits to the data points below and above it (Fig ure S5).
(§2) Concentration (µM) Concentration (µM)
Concentration (µM)Concentration (µM) Concentration (µM)Concentration (µM)
(1 picture or pasted object on this page, not shown here)

DENV2 replicon = details: DENV2 HeLa replicon cells treated for 2 days; for inhibition of luciferase activity (DENV2 replicon): 10 µM
Experimental: (§3) To investigate the effect of geminoids on viral replication, we used HeLa cells containing a DENV2 replicon. Instead of the structural proteins of DENV2, the replicon encodes a luciferase reporter that can be used as a readout for DENV2 protease dependent virus replication. Cell viability was assessed on the same cells using a colourimetric assay based on 3-(4,5-dimethylthiazol-2-yl)-5-(3-carboxymethoxyphenyl)-2H-tetrazolium (MTS) reduction, and by light microscopy. […] The viability of unmodified HeLa cells after treatment with these compounds was also tested in a separate experiment using the Celltiter Blue Viability Assay (Promega, see Supporting Information) in the concentration range of 0.8–50 μM.
(§4) The replicon assay was carried out as described earlier using HeLa cells that contain a stably replicating DENV2 replicon expressing a luciferase reporter gene. The amphiphilic inhibitors were added as concentrated solutions in DMSO; the same amount of DMSO was used as the blank experiment, with the viral inhibitor ribavirin as a positive control. Luciferase activity and cell viability were assessed as described previously.

HeLa cells (wildtype) = experiment: Celltiter Blue Viability Assay on unmodified HeLa cells; details: 24 h, 0.8–50 μM, highest concentration
Experimental: as §3, §2

[3] = system: DENV2 HeLa replicon cells; details: 2 days, 0.3 to 10 µM
Experimental: as §3, §4

human furin, sequence (P09958 108-576 limits assumed): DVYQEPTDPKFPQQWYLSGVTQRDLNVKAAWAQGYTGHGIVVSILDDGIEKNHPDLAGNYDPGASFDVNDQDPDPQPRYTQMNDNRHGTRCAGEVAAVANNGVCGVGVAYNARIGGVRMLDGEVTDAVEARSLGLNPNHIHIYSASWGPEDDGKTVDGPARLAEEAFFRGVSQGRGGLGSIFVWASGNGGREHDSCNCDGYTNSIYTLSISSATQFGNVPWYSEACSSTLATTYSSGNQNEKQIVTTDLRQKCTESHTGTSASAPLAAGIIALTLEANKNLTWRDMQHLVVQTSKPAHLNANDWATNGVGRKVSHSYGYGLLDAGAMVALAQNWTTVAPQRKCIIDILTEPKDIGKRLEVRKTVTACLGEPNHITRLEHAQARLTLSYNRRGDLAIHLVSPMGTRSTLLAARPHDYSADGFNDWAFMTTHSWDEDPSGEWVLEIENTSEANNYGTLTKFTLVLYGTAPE
DENV2 protease, sequence (P14340 1476-1653): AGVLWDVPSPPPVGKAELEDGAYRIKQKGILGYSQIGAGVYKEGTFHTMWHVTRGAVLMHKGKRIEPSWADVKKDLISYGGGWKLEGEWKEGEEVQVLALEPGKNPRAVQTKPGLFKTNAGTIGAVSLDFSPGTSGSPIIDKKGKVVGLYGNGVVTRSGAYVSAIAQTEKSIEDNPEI
DENV2 protease, sequence (P14340 1398-1437): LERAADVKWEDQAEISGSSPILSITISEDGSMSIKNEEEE

Compound	IC50 (DENV2 protease)	IC50 (human furin)	EC50 [1]	IC50 (trypsin)	CMC (Critical Micelle Concentration) [2]	reduction of luciferase activity (DENV2 replicon; 3 µM)	inhibition of luciferase activity (DENV2 replicon) (DENV2 replicon)	DENV Replication in LLC-MK2 Cells EC50 [1]	toxicity in Celltiter Blue Viability Assay (HeLa cells (wildtype))	cell viability (MTS assay), relative to DMSO control [3]
CCCCCCCCCCCCCCCCNC(=O)[C@H](CCCCN)NC(=O)[C@H](CCCCN)NC(=O)CCCCCCCCCCCCCCC [Compound 1]	4.25 ± 0.27 µM									
CCCCCCCCCCCCCCCCNC(=O)[C@H](CCCCN)NC(=O)[C@H](C)NC(=O)[C@H](CCCCN)NC(=O)CCCCCCCCCCCCCCC [Compound 2a, C15H31C(O)-Lys-(Ala)-Lys-NHC16H33.2TFA]		3.57 ± 0.18 µM	4.1 ± 1.5 µM	17.2 ± 0.66 µM	48 to 58 µM	39%	62%			
CCCCCCCCCCCCCCCCNC(=O)[C@H](CCCCN)NC(=O)[C@H](C)NC(=O)[C@H](C)NC(=O)[C@H](CCCCN)NC(=O)CCCCCCCCCCCCCCC [Compound 2b, C15H31C(O)-Lys-(Ala)2-Lys-NHC16H33.2TFA] (Palmitoyl-KAAK-NHhexadecyl)		2.14 ± 0.1 µM	3.1 ± 0.7 µM	20.9 ± 0.34 µM	41 µM		47%			
CCCCCCCCCCCCCCCCNC(=O)[C@H](CCCCN)NC(=O)CNC(=O)[C@H](CCCCN)NC(=O)CCCCCCCCCCCCCCC [Compound 3a]			12.7 ± 1.1 µM	41 ± 2 µM	55 to 72 µM		38%			
CCCCCCCCCCCCCCCCNC(=O)[C@H](CCCCN)NC(=O)CNC(=O)CNC(=O)[C@H](CCCCN)NC(=O)CCCCCCCCCCCCCCC [Compound 3b] (Palmitoyl-KGGK-NHhexadecyl)					30 µM			not active	slight toxicity; also recorded: slight toxicities	considerable cytotoxicity
